{"source": "ChEMBL document CHEMBL1914284", "about": "“Pyrazinamide, but not pyrazinoic acid, is a competitive inhibitor of NADPH binding to Mycobacterium tuberculosis fatty acid synthase I” (Bioorg Med Chem Lett, 2011)", "key": {"[1]": {"system": "Mycobacterium tuberculosis", "experiment": "Binding affinity to Mycobacterium tuberculosis fatty acid synthase 1 at 350 uM by STD NMR spectrophotometric assay"}, "[2]": {"system": "Mycobacterium tuberculosis", "experiment": "Binding affinity to Mycobacterium tuberculosis fatty acid synthase 1 at 500 uM by STD NMR spectrophotometric assay"}, "[3]": {"system": "Mycobacterium tuberculosis", "experiment": "Binding affinity to Mycobacterium tuberculosis fatty acid synthase 1 at 8 mM by STD NMR spectrophotometric assay"}, "[4]": {"experiment": "Binding affinity to Mycobacterium tuberculosis fatty acid synthase 1 by STD NMR spectrophotometric analysis in presence of increasing concentration of NADPH"}, "[5]": {"experiment": "Competitive inhibition of Mycobacterium tuberculosis fatty acid synthase 1 assessed as inhibition of NADPH oxidation by STD NMR spectrophotometric analysis"}}, "note": "Activity calls are given as the source filed them. The rule behind the calls is not given here."}
{"smiles": "C/C=C/C/C=C/CCC(=O)[C@H]1O[C@H]1C(N)=O", "values": [{"measurement": "Activity", "setting": "[1]", "result": "Active"}]}
{"smiles": "CC[C@@H](CO)NCCN[C@@H](CC)CO", "values": [{"measurement": "Activity", "setting": "[2]", "result": "inactive"}]}
{"smiles": "O=C(O)c1cnccn1", "values": [{"measurement": "Activity", "setting": "[3]", "result": "Active"}]}
{"smiles": "NC(=O)c1cnccn1", "note": "[PYRAZINAMIDE]", "values": [{"measurement": "Activity", "setting": "[3]", "result": "Active"}, {"measurement": "Kd", "setting": "[4]", "result": 70, "unit": "µM"}, {"measurement": "Ki", "setting": "[5]", "result": 41, "unit": "µM"}]}
